From ChEMBL document CHEMBL1201862, “PubChem BioAssay data set” (2004)
Activity calls are given as the source filed them.

Legend:
[1] = target: T1, Calpain-2 catalytic subunit (Sus scrofa, UniProt P43367); test: pig calpain II inhibitor potency, dose response, biochemical, fluorogenic peptide substrate (AID 1420); format: functional
T1 sequence (P43367 whole entry): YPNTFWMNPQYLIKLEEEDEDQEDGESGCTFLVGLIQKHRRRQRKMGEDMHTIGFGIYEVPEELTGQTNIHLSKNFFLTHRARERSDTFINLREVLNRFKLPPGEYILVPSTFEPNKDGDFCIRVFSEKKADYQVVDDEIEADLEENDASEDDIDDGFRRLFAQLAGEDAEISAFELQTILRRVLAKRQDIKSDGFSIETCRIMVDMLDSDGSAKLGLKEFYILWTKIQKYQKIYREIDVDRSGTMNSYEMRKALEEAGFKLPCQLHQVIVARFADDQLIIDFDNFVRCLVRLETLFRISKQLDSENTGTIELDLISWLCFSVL

[2] = target: Glyceraldehyde-3-phosphate dehydrogenase (Homo sapiens, UniProt P04406)
Glyceraldehyde-3-phosphate dehydrogenase, sequence (P04406 whole entry): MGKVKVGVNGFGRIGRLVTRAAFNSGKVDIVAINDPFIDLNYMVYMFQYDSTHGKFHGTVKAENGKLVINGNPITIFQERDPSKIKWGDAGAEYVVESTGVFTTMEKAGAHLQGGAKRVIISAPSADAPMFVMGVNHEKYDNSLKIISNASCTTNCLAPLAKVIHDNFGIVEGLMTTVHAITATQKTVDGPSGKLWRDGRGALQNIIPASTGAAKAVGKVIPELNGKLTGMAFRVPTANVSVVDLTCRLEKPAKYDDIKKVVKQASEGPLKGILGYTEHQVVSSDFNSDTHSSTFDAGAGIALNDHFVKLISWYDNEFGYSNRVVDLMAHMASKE

[3] = target: Eukaryotic translation initiation factor 4E (Mus musculus, UniProt P63073); test: eIF4E–eIF4G protein interaction inhibitors, dose response, biochemical, TR-FRET (AID 855); format: functional;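 note: potency for disrupting eIF4E binding to eIF4GI seen as loss of FRET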
Eukaryotic translation initiation factor 4E, sequence (P63073 whole entry): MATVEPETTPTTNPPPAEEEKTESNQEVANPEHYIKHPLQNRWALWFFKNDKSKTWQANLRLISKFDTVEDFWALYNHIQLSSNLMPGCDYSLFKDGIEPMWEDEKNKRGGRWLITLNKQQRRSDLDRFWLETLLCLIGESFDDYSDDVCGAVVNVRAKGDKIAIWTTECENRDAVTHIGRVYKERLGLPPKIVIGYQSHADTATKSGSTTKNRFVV

[4] = target: T2, DNA repair and recombination protein RAD54-like (Homo sapiens, UniProt Q92698); test: inhibitors of human RAD54 branch migration, confirmation, biochemical, fluorescence, cherry-picked samples, dose series (AID 651657); format: functional
T2 sequence (Q92698 whole entry): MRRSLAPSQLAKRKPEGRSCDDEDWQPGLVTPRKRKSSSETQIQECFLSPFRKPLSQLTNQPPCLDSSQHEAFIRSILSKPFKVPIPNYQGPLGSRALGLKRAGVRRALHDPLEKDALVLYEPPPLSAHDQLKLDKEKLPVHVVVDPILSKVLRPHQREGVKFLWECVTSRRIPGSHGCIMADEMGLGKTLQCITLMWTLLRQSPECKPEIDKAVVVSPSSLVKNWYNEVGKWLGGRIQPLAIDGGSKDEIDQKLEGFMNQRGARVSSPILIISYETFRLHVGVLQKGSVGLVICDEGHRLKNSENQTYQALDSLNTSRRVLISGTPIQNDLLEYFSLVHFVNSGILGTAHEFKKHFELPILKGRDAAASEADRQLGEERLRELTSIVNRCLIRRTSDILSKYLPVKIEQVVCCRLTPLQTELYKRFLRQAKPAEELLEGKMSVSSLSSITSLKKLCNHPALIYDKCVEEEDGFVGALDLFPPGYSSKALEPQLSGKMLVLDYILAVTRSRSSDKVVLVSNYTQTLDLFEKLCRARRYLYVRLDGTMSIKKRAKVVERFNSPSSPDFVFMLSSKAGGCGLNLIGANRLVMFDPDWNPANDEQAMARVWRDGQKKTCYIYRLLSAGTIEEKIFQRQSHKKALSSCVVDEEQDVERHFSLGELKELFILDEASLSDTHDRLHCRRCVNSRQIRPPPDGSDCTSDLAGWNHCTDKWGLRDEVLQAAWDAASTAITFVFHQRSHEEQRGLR

[5] = target: T3, DNA repair protein RAD52 homolog (Homo sapiens, UniProt P43351); format: functional, biochemical
T3 sequence (P43351 whole entry): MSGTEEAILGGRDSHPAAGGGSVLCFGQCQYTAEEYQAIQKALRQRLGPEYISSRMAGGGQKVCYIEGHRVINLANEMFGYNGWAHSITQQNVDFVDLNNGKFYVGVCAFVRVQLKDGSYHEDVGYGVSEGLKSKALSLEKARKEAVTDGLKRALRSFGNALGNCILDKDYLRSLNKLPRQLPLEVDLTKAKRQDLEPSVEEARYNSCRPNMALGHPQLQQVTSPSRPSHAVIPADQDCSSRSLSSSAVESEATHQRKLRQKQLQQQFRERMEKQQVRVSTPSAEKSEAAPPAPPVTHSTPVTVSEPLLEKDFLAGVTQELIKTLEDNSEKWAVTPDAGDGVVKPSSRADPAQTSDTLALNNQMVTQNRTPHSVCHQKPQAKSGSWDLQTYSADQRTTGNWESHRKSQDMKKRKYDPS

[6] = target: T4, Rac GTPase-activating protein 1 (Homo sapiens, UniProt Q9H0H5); test: MgcRacGAP GTPase-activating activity inhibitors, confirmation, biochemical, ADP Hunter fluorescence, primary and confirmatory (AID 624330); format: functional
T4 sequence (Q9H0H5 whole entry): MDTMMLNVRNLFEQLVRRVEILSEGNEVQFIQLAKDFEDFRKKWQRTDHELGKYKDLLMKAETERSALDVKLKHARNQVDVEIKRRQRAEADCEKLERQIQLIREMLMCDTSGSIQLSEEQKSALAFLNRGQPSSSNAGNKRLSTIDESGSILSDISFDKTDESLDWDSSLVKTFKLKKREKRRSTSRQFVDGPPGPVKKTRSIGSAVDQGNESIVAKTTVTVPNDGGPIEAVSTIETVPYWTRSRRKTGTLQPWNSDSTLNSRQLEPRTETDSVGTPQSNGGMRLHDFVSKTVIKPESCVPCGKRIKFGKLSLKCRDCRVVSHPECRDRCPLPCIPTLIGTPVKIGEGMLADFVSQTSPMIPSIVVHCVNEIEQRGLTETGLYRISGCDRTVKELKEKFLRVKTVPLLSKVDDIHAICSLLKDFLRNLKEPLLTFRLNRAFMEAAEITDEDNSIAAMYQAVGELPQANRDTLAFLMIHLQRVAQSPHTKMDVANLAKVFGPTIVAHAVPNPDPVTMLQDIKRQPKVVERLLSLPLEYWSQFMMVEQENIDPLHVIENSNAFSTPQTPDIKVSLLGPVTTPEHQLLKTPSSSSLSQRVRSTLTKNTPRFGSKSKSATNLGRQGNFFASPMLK

[7] = Luminescence Cell-Based Dose Response HTS to Identify Activators of Luciferase Translation or Activity in H4 […] Cells. [Related pubchem assays: 1829 (Project Summary), 1814 (Primary HTS)]; format: functional
H4 = test: Luminescence Cell-Based Dose Response HTS to Identify Activators of 5'UTR Stem-Loop Driven Prion Protein mRNA Translation in H4 Neuroglioblastoma Cells. [Related pubchem assays: 1829 (Project Summary), 1814 (Primary HTS)]; format: functional; details: Homo sapiens
[8] = THP-1 cell cytotoxicity, dose response, cytotoxicity control for non-replicating M. tuberculosis project (AID 489025); format: functional
[9] = target: T5, Heat shock factor protein 1 (Mus musculus, UniProt P38532); test: inhibition of MG132-induced HSE-luciferase signal, confirmation, cell-based, NIH3T3, luminescence, dose retest (AID 2382); format: functional;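 note: NIH3T3 fibroblasts with HSF1-driven luciferase reporter stressed by proteasome inhibitor MG132; luminescence from HSF1-driven luciferase expression after 8 hours of MG132 stress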
T5 sequence (P38532 whole entry): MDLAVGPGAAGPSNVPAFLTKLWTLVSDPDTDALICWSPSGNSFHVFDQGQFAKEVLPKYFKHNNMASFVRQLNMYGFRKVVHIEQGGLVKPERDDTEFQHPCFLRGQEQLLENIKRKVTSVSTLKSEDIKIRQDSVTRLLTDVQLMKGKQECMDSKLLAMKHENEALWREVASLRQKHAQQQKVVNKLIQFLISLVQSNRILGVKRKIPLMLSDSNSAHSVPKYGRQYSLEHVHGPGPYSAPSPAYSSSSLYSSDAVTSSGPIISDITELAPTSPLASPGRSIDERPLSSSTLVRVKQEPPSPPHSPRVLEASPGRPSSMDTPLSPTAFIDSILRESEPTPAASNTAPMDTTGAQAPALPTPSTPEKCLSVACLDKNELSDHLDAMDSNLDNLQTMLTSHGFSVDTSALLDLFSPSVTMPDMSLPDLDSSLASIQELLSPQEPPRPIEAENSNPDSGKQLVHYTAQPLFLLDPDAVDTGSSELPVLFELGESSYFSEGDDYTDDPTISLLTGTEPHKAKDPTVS

[10] = intracellular Trypanosoma cruzi inhibitors in host cells – cell-based, plate reader, cherry-pick samples, set 3, dose response (AID 651818); format: functional;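 note: compounds incubated with infected cells for about four days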
[11] = target: T6, Ubiquitin-conjugating enzyme E2 N (Homo sapiens, UniProt P61088); format: functional;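 note: Dose-response confirmation in a TR-FRET assay detecting UBC13-driven polyubiquitin chain formation, inhibition measured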
T6 sequence (P61088 whole entry): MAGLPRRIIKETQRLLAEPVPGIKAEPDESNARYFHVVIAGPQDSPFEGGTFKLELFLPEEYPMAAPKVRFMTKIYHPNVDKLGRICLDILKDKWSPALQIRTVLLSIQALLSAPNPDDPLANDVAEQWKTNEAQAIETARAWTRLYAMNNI

BJ [12] = test: cytotoxicity toward BJ-TERT fibroblasts, dose response, cell-based, RAS-independent, luminescence (AID 1933); format: functional; details: Homo sapiens
BJ [13] = test: cells; format: functional, cell-based; details: Homo sapiens
[14] = growth suppression of PTEN-null colon cells, dose response, cell-based, HCT116 PTEN knockout (AID 1047); format: functional;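 note: HCT116 colon tumor cells with PTEN knocked out; cells exposed to compound for 60 hours before readout; potency for loss of cell viability measured by luminescence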
[15] = growth suppression of beta-catenin-knockout colon cells, dose response, cell-based, HCT116, human colon tumor (AID 1045); format: functional;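 note: HCT116 colon tumor cells with beta catenin knocked out; cells exposed to compound for 60 hours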
BJ [16] = test: cytotoxicity toward BJ-TERT-LT-ST fibroblasts, dose response, cell-based, RAS-independent, luminescence (AID 1935); format: functional; details: Homo sapiens;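 note: BJ fibroblasts immortalized with TERT plus LT and ST oncogenes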
[17] = cytotoxicity toward DRD oncogenic fibroblasts, dose response, cell-based, non-viral oncogenic, luminescence (AID 1934); format: functional; details: Homo sapiens
[18] = target: T7, Short transient receptor potential channel 4 (Mus musculus, UniProt Q9QUQ5); test: mouse TRPC4 channel activators, dose response, cell-based, HEK293 TRPC4/mu-opioid, Fluo-4 calcium (AID 434937); format: functional
T7 sequence (Q9QUQ5 whole entry): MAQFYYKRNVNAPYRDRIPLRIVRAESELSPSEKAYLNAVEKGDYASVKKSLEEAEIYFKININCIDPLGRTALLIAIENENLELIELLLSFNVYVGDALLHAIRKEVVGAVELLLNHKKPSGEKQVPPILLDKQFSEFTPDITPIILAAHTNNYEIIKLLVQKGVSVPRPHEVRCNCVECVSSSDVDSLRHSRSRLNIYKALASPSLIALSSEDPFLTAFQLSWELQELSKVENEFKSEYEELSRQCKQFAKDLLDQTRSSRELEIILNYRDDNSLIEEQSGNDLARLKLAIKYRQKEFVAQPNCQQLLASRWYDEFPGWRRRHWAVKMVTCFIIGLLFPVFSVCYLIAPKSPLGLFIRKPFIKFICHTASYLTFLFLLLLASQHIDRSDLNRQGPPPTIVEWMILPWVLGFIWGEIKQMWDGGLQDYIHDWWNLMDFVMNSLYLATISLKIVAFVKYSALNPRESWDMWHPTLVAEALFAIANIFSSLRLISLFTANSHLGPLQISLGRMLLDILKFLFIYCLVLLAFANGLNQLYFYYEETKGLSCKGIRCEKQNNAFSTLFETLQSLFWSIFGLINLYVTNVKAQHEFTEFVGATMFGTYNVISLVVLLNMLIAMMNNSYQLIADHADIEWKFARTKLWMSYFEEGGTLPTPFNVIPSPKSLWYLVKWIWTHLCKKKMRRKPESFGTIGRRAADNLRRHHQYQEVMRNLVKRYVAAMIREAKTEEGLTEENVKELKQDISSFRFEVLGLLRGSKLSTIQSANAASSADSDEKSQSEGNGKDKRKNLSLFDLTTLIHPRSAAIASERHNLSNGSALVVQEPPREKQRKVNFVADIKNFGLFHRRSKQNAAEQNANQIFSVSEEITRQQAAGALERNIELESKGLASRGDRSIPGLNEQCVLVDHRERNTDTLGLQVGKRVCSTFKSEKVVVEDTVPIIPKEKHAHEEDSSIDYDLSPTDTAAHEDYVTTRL

Estrogen receptor beta = Estrogen receptor beta (Homo sapiens, UniProt Q92731);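 note: recombinant ER-beta bound to coactivator SRC1 peptide in presence of estradiol agonist; inhibitors block coactivator peptide binding and lower the FRET signal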
Estrogen receptor beta, sequence (Q92731 whole entry): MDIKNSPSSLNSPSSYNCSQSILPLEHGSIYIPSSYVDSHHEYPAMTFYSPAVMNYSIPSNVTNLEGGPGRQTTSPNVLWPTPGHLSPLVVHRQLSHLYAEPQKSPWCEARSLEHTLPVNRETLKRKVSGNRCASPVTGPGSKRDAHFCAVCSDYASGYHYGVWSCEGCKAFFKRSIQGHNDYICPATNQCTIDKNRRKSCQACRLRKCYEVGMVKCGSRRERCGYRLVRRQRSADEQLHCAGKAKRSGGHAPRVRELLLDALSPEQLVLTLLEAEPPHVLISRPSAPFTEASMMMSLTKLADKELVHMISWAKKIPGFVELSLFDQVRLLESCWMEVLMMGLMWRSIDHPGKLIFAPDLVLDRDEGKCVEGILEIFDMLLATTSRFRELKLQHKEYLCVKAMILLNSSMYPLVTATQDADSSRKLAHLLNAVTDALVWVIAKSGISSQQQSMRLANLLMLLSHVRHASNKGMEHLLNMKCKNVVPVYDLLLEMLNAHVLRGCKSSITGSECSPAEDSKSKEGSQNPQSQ

COc1ccc(C(C)=O)c2c(O)cccc12
IC50 [1]: 0.917 µM (not active)

O=C(CCC1CCCC1)Nc1nnc[nH]1
IC50 [2]: > 10 µM (inconclusive)

Oc1cc2c(cc1C(c1ccc(Br)cc1)N1CCCC1)OCO2 (configuration not stated)
IC50 [3]: 50 µM (inactive)

COc1ccc(-c2nc(C(=O)NCCCN3CCOCC3)cc3c2[nH]c2ccccc23)cc1OC
AC50 [4]: 13.7 µM (active) | AC50 [5]: 4.84 µM (active)

Cc1nc2nc(C)c(C)nc2nc1C
AC50 [4]: 34.7 µM (active)

COc1ccccc1CN1CCN(C(=O)c2ccncc2)CC1
IC50 [3]: > 64 µM (inactive) | IC50 [6]: 120 µM (active)

O=C(CCC1CCCC1)Nc1ccc(Br)cn1
EC50 [7]: 805 nM (active) | EC50 (H4): > 120 µM (not active) | CC50 [8]: > 40 µM (active)

Cc1ccc(C)c(SCC(=O)NC(=O)Nc2ccc3c(c2)OCCO3)c1
IC50 [1]: < 0.4 µM (not active)

CN(C)CCCN=C(S)N(CCN(C)C)Cc1cc2cc3c(cc2nc1O)OCCO3
AC50 [5]: 5.91 µM (active)

Cn1c(N)c(C(=O)COC(=O)CC2CC3CCC2C3)c(=O)n(C)c1=O (configuration not stated)
IC50 [1]: 2.16 µM (active)

Cn1c2c(c(=O)n(C)c1=O)C(CC(=O)Nc1ccccc1)C(=O)N2 (configuration not stated)
EC50 [9]: > 195 µM (not active) | IC50 [1]: 2.62 µM (not active)

CC(=O)Nc1cc(-c2cccc(C(=O)NCCN(C)C)c2)cn2c(-c3ccc(S(C)(=O)=O)cc3)cnc12
AC50 [4]: 25.8 µM (active) | AC50 [5]: 2.7 µM (active)

CC(C)Cc1ccc(C(C)C(=O)OCC(=O)c2c[nH]c3ccccc23)cc1 (configuration not stated)
IC50 [1]: 6.65 µM (not active)

C[C@@H]1CN([C@H](C)CO)C(=O)Cc2cc(NC(=O)Nc3cccc4ccccc34)ccc2O[C@@H]1CN(C)Cc1ccc(Oc2ccccc2)cc1
AC50 [10]: 2.15 µM (active)

CCC[C@@H](CN1CCC[C@H]1CN1C(N)=NC[C@H]1CC(C)C)N1C[C@@H]([C@H](C)CC)N(CCc2ccc(Cl)c(Cl)c2)C1=N
IC50 [11]: > 20 µM (inactive) | AC50 [5]: 12.4 µM (active)

Clc1ccc(OCCCn2cncn2)cc1Cl
IC50 [3]: > 64 µM (inactive)

CCN(CC)CCCNC(=O)c1cc2c(-c3ccc(Cl)cc3)nn(C)c2s1
EC50 (BJ [12]): 9.1 µM (active) | EC50 (BJ [13]): 21.8 µM (active) | EC50 [14]: 5.12 µM (active) | EC50 [15]: 4.29 µM (active) | EC50 (BJ [16]): 12.1 µM (inconclusive) | EC50 [17]: 10.4 µM (active) | EC50 [18]: 335 nM (active) | AC50 [4]: 35.9 µM (active)

Cc1n[nH]c(C)c1S(=O)(=O)N(CC(=O)N1CCc2ccccc21)c1ccc(C(C)C)cc1
IC50 (Estrogen receptor beta): > 50 µM (not active)
